Source: PubChem BioAssay (NCI)
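The compound was tested at five concentrations on cells cultured in 96-well plates, with a 48-hour exposure period. TGI is the concentration that stops growth completely.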

These molecules were tested on OVCAR-3 ovarian (assay: NCI-60 cell line screen, 48 h).

SMILES | TGI
CN(C)CC1CCCC/C1=N/O (centres undefined) | > 100 µM
COc1c(CC(C)=O)ccc2c1C(=O)c1ccc(C=O)c(OC(C)=O)c1C2=O | 35.3 µM

What follows are molecules tested on SN12C renal (assay: NCI-60 cell line screen, 48 h).

SMILES | TGI
COc1ccc2c(c1)[n+]([O-])c(C(N)=O)c(N)[n+]2[O-] | > 100 µM
Clc1ccc2cccc3c2c1C1OC3c2ccccc21 (centres undefined) | > 100 µM
CN(C)C(=S)/N=c1\ssc(=S)n1C1CCCCC1 | > 100 µM
CCCCCCCCCCCCNC(=S)OC | 27.3 µM
O=c1[nH]c2cc(Cl)ccc2nc1/C(=N\Nc1ccccc1)C(O)c1ccc(Cl)c(Cl)c1 (centres undefined) | > 100 µM
S=P1(Oc2ccccc2)NNP2(=NP(N3CC3)(N3CC3)=NP(N3CC3)(N3CC3)=N2)NN1 (centres undefined) | > 100 µM
CN(C)CC1CCCC/C1=N/O (centres undefined) | > 100 µM
COc1c(CC(C)=O)ccc2c1C(=O)c1ccc(C=O)c(OC(C)=O)c1C2=O | 27.6 µM

Each molecule was assayed on SF-295 CNS (assay: NCI-60 cell line screen, 48 h).

SMILES | TGI
COc1ccc2c(c1)[n+]([O-])c(C(N)=O)c(N)[n+]2[O-] | > 100 µM
Clc1ccc2cccc3c2c1C1OC3c2ccccc21 (centres undefined) | > 100 µM
CN(C)C(=S)/N=c1\ssc(=S)n1C1CCCCC1 | > 100 µM
CCCCCCCCCCCCNC(=S)OC | 36 µM
O=c1[nH]c2cc(Cl)ccc2nc1/C(=N\Nc1ccccc1)C(O)c1ccc(Cl)c(Cl)c1 (centres undefined) | > 100 µM
CN(C)CC1CCCC/C1=N/O (centres undefined) | > 100 µM
COc1c(CC(C)=O)ccc2c1C(=O)c1ccc(C=O)c(OC(C)=O)c1C2=O | 53.3 µM

These molecules were tested on SW-620 colon (assay: NCI-60 cell line screen, 48 h).

SMILES | TGI
COc1ccc2c(c1)[n+]([O-])c(C(N)=O)c(N)[n+]2[O-] | > 100 µM
Clc1ccc2cccc3c2c1C1OC3c2ccccc21 (centres undefined) | > 100 µM
CN(C)C(=S)/N=c1\ssc(=S)n1C1CCCCC1 | 28.4 µM
CCCCCCCCCCCCNC(=S)OC | 30.2 µM
O=c1[nH]c2cc(Cl)ccc2nc1/C(=N\Nc1ccccc1)C(O)c1ccc(Cl)c(Cl)c1 (centres undefined) | > 100 µM
S=P1(Oc2ccccc2)NNP2(=NP(N3CC3)(N3CC3)=NP(N3CC3)(N3CC3)=N2)NN1 (centres undefined) | > 100 µM
CN(C)CC1CCCC/C1=N/O (centres undefined) | > 100 µM
COc1c(CC(C)=O)ccc2c1C(=O)c1ccc(C=O)c(OC(C)=O)c1C2=O | 33.7 µM

These molecules were tested on DMS 114 small cell lung (assay: NCI-60 cell line screen, 48 h).

SMILES | TGI
COc1ccc2c(c1)[n+]([O-])c(C(N)=O)c(N)[n+]2[O-] | 98.8 µM
Clc1ccc2cccc3c2c1C1OC3c2ccccc21 (centres undefined) | > 100 µM
CN(C)C(=S)/N=c1\ssc(=S)n1C1CCCCC1 | 50.5 µM
CCCCCCCCCCCCNC(=S)OC | 17.9 µM
O=c1[nH]c2cc(Cl)ccc2nc1/C(=N\Nc1ccccc1)C(O)c1ccc(Cl)c(Cl)c1 (centres undefined) | > 100 µM
S=P1(Oc2ccccc2)NNP2(=NP(N3CC3)(N3CC3)=NP(N3CC3)(N3CC3)=N2)NN1 (centres undefined) | > 100 µM
CN(C)CC1CCCC/C1=N/O (centres undefined) | > 100 µM
COc1c(CC(C)=O)ccc2c1C(=O)c1ccc(C=O)c(OC(C)=O)c1C2=O | 33.2 µM

What follows are molecules tested on MALME-3M melanoma (assay: NCI-60 cell line screen, 48 h).

SMILES | TGI
COc1ccc2c(c1)[n+]([O-])c(C(N)=O)c(N)[n+]2[O-] | > 100 µM
Clc1ccc2cccc3c2c1C1OC3c2ccccc21 (centres undefined) | > 100 µM
CN(C)C(=S)/N=c1\ssc(=S)n1C1CCCCC1 | 64.8 µM
CCCCCCCCCCCCNC(=S)OC | 29.5 µM
O=c1[nH]c2cc(Cl)ccc2nc1/C(=N\Nc1ccccc1)C(O)c1ccc(Cl)c(Cl)c1 (centres undefined) | > 100 µM
S=P1(Oc2ccccc2)NNP2(=NP(N3CC3)(N3CC3)=NP(N3CC3)(N3CC3)=N2)NN1 (centres undefined) | > 100 µM
CN(C)CC1CCCC/C1=N/O (centres undefined) | > 100 µM
COc1c(CC(C)=O)ccc2c1C(=O)c1ccc(C=O)c(OC(C)=O)c1C2=O | 25.5 µM

Each molecule was assayed on SNB-78 CNS (assay: NCI-60 cell line screen, 48 h).

SMILES | TGI
COc1ccc2c(c1)[n+]([O-])c(C(N)=O)c(N)[n+]2[O-] | > 100 µM
Clc1ccc2cccc3c2c1C1OC3c2ccccc21 (centres undefined) | > 100 µM
CCCCCCCCCCCCNC(=S)OC | 45.9 µM
O=c1[nH]c2cc(Cl)ccc2nc1/C(=N\Nc1ccccc1)C(O)c1ccc(Cl)c(Cl)c1 (centres undefined) | > 100 µM
CN(C)CC1CCCC/C1=N/O (centres undefined) | > 100 µM
COc1c(CC(C)=O)ccc2c1C(=O)c1ccc(C=O)c(OC(C)=O)c1C2=O | 55.6 µM

What follows are molecules tested on SNB-19 CNS (assay: NCI-60 cell line screen, 48 h).

SMILES | TGI
COc1ccc2c(c1)[n+]([O-])c(C(N)=O)c(N)[n+]2[O-] | > 100 µM
Clc1ccc2cccc3c2c1C1OC3c2ccccc21 (centres undefined) | > 100 µM
CN(C)C(=S)/N=c1\ssc(=S)n1C1CCCCC1 | > 100 µM
CCCCCCCCCCCCNC(=S)OC | 69.8 µM
O=c1[nH]c2cc(Cl)ccc2nc1/C(=N\Nc1ccccc1)C(O)c1ccc(Cl)c(Cl)c1 (centres undefined) | > 100 µM
S=P1(Oc2ccccc2)NNP2(=NP(N3CC3)(N3CC3)=NP(N3CC3)(N3CC3)=N2)NN1 (centres undefined) | > 100 µM
COc1c(CC(C)=O)ccc2c1C(=O)c1ccc(C=O)c(OC(C)=O)c1C2=O | 57.4 µM
